Among the test systems are RXF 393 renal; OVCAR-3 ovarian; OVCAR-4 ovarian; SK-MEL-28 melanoma; UO-31 renal; MALME-3M melanoma; UACC-257 melanoma; SF-268 CNS; HL-60(TB) leukemia.
Experiment in all cases: NCI-60 cell line screen, 48 h

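The compound was tested at five concentrations on cells cultured in 96-well plates, with a 48-hour exposure period. GI50 marks 50% less growth. TGI: concentration producing complete growth inhibition.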

For `COP(=O)(CP(=O)(OC)OCCC(C)CCC=C(C)C)OC` (stereo not drawn), the TGI in the test with RXF 393 renal, in the test on OVCAR-3 ovarian, in the test with OVCAR-4 ovarian, with SK-MEL-28 melanoma, with UO-31 renal and in the test on MALME-3M melanoma was more than 100 µM throughout. Also, the TGI in the test on UACC-257 melanoma and with SF-268 CNS was more than 100 µM each time.

As to `CC(=O)NC1C(OCc2ccccc2)OC(CO)C(O)C1OC(C)C(=O)NC(C(=O)NC(CCC(=O)NCCCNc1ccc([N+](=O)[O-])c2[nH]c3ccccc3c(=O)c12)C(N)=O)C(C)C` (stereo not drawn), the TGI with HL-60(TB) leukemia, in the test on OVCAR-3 ovarian, with OVCAR-4 ovarian, in the test with SK-MEL-28 melanoma, in the test on UO-31 renal and with UACC-257 melanoma was more than 100 µM in each case. In the test with SF-268 CNS, this molecule displayed a TGI of more than 100 µM.

Regarding `CC1(C)CCC2=C(O1)c1ccccc1C(=Nc1ccc([N+](=O)[O-])cc1)C2=O`, the TGI was more than 100 µM with HL-60(TB) leukemia; 32.7 µM with RXF 393 renal; 25.3 µM with OVCAR-3 ovarian; 38.7 µM in the test on OVCAR-4 ovarian; 29.8 µM in the test with SK-MEL-28 melanoma; 22.4 µM in the test on UO-31 renal. The TGI with MALME-3M melanoma was 29.7 µM; in the test with UACC-257 melanoma it was 30.1 µM; with SF-268 CNS, more than 100 µM.

Turning to `CC(=O)/C=C(/C)[O-].CC(=O)/C=C(/C)[O-].CC(=O)[CH-]C(C)=O.CC(=O)[CH-]C(C)=O.[Zr+4]`, the GI50 with HL-60(TB) leukemia is 28.8 µM; in the test on RXF 393 renal it was more than 100 µM; in the test with OVCAR-3 ovarian, more than 100 µM; in the test on OVCAR-4 ovarian it was more than 100 µM; with SK-MEL-28 melanoma it was more than 100 µM; with UO-31 renal, more than 100 µM. Besides, the GI50 with MALME-3M melanoma was 12.7 µM; with UACC-257 melanoma, more than 100 µM; in the test with SF-268 CNS, more than 100 µM. In addition, the TGI is 71.3 µM with HL-60(TB) leukemia; more than 100 µM in the test with RXF 393 renal; more than 100 µM with OVCAR-3 ovarian; more than 100 µM with OVCAR-4 ovarian; more than 100 µM in the test with SK-MEL-28 melanoma; more than 100 µM with UO-31 renal. The TGI with MALME-3M melanoma was 32.5 µM; with UACC-257 melanoma it was more than 100 µM; with SF-268 CNS, more than 100 µM.

For `O=c1c2cccnc2oc2c(Cl)cc(-c3nn[nH]n3)cc12`, the TGI in the test with HL-60(TB) leukemia, in the test on RXF 393 renal, in the test on OVCAR-3 ovarian, in the test with OVCAR-4 ovarian, in the test on SK-MEL-28 melanoma and with UO-31 renal was more than 100 µM throughout. The TGI in the test on MALME-3M melanoma and with SF-268 CNS was more than 100 µM each time.

As for `O/N=C1\C/C(=N\O)c2c(Br)sc(Br)c21`, the TGI was more than 100 µM in the test with HL-60(TB) leukemia; more than 100 µM in the test on OVCAR-3 ovarian; more than 100 µM with OVCAR-4 ovarian; 63.2 µM with SK-MEL-28 melanoma; more than 100 µM in the test on UO-31 renal; more than 100 µM with MALME-3M melanoma. Further, the values for the TGI with UACC-257 melanoma and in the test with SF-268 CNS were more than 100 µM and 96.5 µM, respectively.

On to `CC(C)OC1=C(CC2(C)OCCO2)C(=O)C12OCCO2`, for which the TGI in the test on HL-60(TB) leukemia, with OVCAR-3 ovarian, with OVCAR-4 ovarian, in the test with SK-MEL-28 melanoma, with UO-31 renal and in the test on UACC-257 melanoma was more than 100 µM in each case. The TGI in the test with SF-268 CNS was more than 100 µM.

In the case of `Cc1cc(C)[n+]2c(c1)C=CC2`, the TGI in the test on HL-60(TB) leukemia is 26.3 µM; in the test on RXF 393 renal, 25.1 µM; with OVCAR-3 ovarian it was 38.6 µM; in the test with OVCAR-4 ovarian, more than 100 µM; in the test with SK-MEL-28 melanoma, more than 100 µM; in the test on UO-31 renal, more than 100 µM. Further, the TGI in the test on MALME-3M melanoma was 8.57 µM; in the test with UACC-257 melanoma it was more than 100 µM; in the test with SF-268 CNS it was more than 100 µM.

For the molecule `OC(CCN1CCN(CCOC(c2ccccc2)c2ccccc2)CC1)c1ccccc1` (stereo not drawn), the TGI in the test on HL-60(TB) leukemia is 44.3 µM; with RXF 393 renal, 48.6 µM; with OVCAR-3 ovarian, 81.1 µM; in the test on OVCAR-4 ovarian, more than 100 µM; with SK-MEL-28 melanoma, 34.4 µM; in the test with UO-31 renal, 44 µM. In addition, the TGI in the test on MALME-3M melanoma amounted to 32.6 µM; in the test on UACC-257 melanoma it was 34.8 µM; in the test with SF-268 CNS, 57 µM.

With `COC1(OC)CC(CO)(COc2cc(Cl)nc(N)n2)C1`, the TGI in the test with RXF 393 renal, with OVCAR-3 ovarian, in the test with OVCAR-4 ovarian, in the test on SK-MEL-28 melanoma, in the test with UO-31 renal and in the test with MALME-3M melanoma was more than 100 µM throughout. Further, the TGI in the test on UACC-257 melanoma and with SF-268 CNS was more than 100 µM throughout.

As to `COc1cc2c3c(n(C)c(=O)c2cc1OC)-c1cc2c(cc1/C3=C\CCCCl)OCO2`, the TGI in the test on HL-60(TB) leukemia was more than 100 µM; in the test with RXF 393 renal it was 26.8 µM; in the test with OVCAR-4 ovarian, more than 100 µM; with SK-MEL-28 melanoma, more than 100 µM; with UO-31 renal, more than 100 µM; in the test with MALME-3M melanoma, more than 100 µM. For the same molecule, the TGI in the test with UACC-257 melanoma and with SF-268 CNS was more than 100 µM in each case.

Take `CCOc1ccc2c(c1)C(/C(C(Cl)=C(Cl)Cl)=[N+](/[O-])OC(=O)c1ccccc1)=N2`: the TGI with HL-60(TB) leukemia, in the test on RXF 393 renal, in the test on OVCAR-3 ovarian, in the test on OVCAR-4 ovarian, in the test on SK-MEL-28 melanoma and with UO-31 renal was more than 100 µM in each case. For the same molecule, the TGI in the test on MALME-3M melanoma, in the test on UACC-257 melanoma and in the test on SF-268 CNS was more than 100 µM in each case.

Values taken from PubChem BioAssay (NCI).
